From ChEMBL document CHEMBL1142962, “Antiproliferative prenylated stilbenes and flavonoids from Macaranga alnifolia from the Madagascar rainforest” (J Nat Prod, 2007)

System: A2780 (human ovarian cancer)
Experiment: Antiproliferative activity against drug-sensitive human A2780 cells

Which IC50 does the source give for `COc1cc(/C=C/c2cc(O)c(CC=C(C)C)c(O)c2)cc2c1O[C@]1(C)CC[C@@H](O)C(C)(C)[C@H]1C2` [SCHWEINFURTHIN F] here?
Its IC50 is 5 µM.
